Consider one compound from US10799521B2, “Use of icaritin in preparing medicament for preventing or treating hematocytopenia” (Lunan Pharmaceutical Group Corporation, priority 2013, dated 2020).

Marks after values point to notes of the source that are not given here.

The test system of test [1] is tumor-bearing mice (mice ascites tumor s180 cells). Put plainly: Effect on chemotherapy-induced bone marrow suppression in tumor-bearing mice (routine blood test). The class given is in vivo, Kunming mice. The conditions noted are these: after 10 days once daily, docetaxel 75 mg/m^2/d iv, Tegafur/Gimeracil/Oteracil capsules 222.2 mg/m^2/d intragastric, icaritin 10 mg/kg/d iv. The method, then:
Mice ascites tumor s180 cells were conventionally incubated in 1640 culture medium, at 37° C., 5% CO2, and passaged once every two days in average. The cells in the logarithmic growth phase were prepared into a single-cell suspension having a density of 3.0×10^7 cells/ml with normal saline, which was injected into the abdominal cavities of mice under sterile conditions. Seven days after inoculation, significant swelling of the abdominal cavities of mice can be seen. As this time, the mice were executed by cervical vertebra luxation, put into a beaker containing 75% ethanol and soaked for 2-3 minutes. The sterilized mice were placed into an ultraclean bench, and the abdomens were exposed. The ascites was drawn with a sterile syringe and put into a sterile reagent bottle for further use. The above ascites was counted with trypan blue, diluted with normal saline to adjust to 2.0×10^7 cells/ml, and inoculated at the right armpit of the mice with 0.2 ml for each mouse. The inoculated mice were randomly divided into 6 groups, with 10 animals in each group and half male and half female. Group 1, the model control group: the test animals were intraperitoneally injected with0.9% normal saline (same for the following experiments); Group 2, the docetaxel group: 75 mg/m^2/d of docetaxel; Group 3, the Tegafur, Gimeracil and Oteracil Potassium Capsules group: 222.2 mg/m^2/d of Tegafur, Gimeracil and Oteracil Potassium Capsules; Group 4, the icaritin group: 10 mg/kg/d of the icaritin microemulsion formulation; Group 5, the D+I group (docetaxel+icaritin group): 75 mg/m^2/d of docetaxel+[…] of icaritin; Group 6, the T +I group (Tegafur, Gimeracil and Oteracil Potassium Capsules+icaritin group): 222.2 mg/m^2/d of Tegafur, Gimeracil and Oteracil Potassium Capsules+10 mg/kg/d of icaritin. Docetaxel and icaritin were administered by tail intravenous injection with an administration volume of 10 ml/kg for each. Tegafur, Gimeracil and Oteracil Potassium Capsules was intragastrically administered with an administration volume of 40 ml/kg. Each group was administered once a day for totally 10 days. During the test, the animals were observed every day for their food and water uptake, survival conditions and behaviors, and measured for their body weights every day. After the test was ended, the mice were anaesthetized and anatomized. Blood was collected from abdominal aorta for routine blood test, and the total number of white blood cells, the total number of platelets and the total number of neutrophils were determined.

In test [2] the test system is normal mice. Description: Clotting time in normal mice (capillary method). Format: in vivo, Kunming mice. The arrangement: unit not given here. The following applies: 3 days, 1 h after last administration. The procedure:
100 Kunming mice were randomly divided into 5 groups, i.e. the blank control group (normal saline group), the icariin group (positive control group), the high-dose icaritin group, the medium-dose icaritin group, and the low-dose icaritin group. Each group was administered as follows.
Blank control group: administered with the same volume of normal saline by subcutaneous injection;
Icariin group: administered with 2 mg/kg of icariin by injection;
High-dose icaritin group: administered with the injection of icaritin of Example 1 by subcutaneous injection at a dosage of 10 mg/kg;
Medium-dose icaritin group: administered with the injection of icaritin of Example 1 by subcutaneous injection at a dosage of 5 mg/kg;
Low-dose icaritin group: administered with the injection of icaritin of Example 1 by subcutaneous injection at a dosage of 1 mg/kg.
Measurement of the clotting time: The normal saline group (blank control group), the icariin group (positive control group), and the icaritin administration groups (high-, medium-, and low-dose groups) were designed as follows: 50 mice were selected, weighed and randomly divided into 5 groups, with 10 mice in each group. The animals were administered consecutively for 3 days. At 1 h after the last administration, blood was sampled from the venous plexus by inserting a disposable 20 μl blood collection tube into the inner canthus of the mouse to collect 20 μl of blood. A small fragment of capillary was broken off every 15 s for checking the occurrence of clotting filaments. The time from the blood sampling to the occurrence of fibrous protein filaments (clotting time) was recorded, and the results were shown in Table 5.

Test [3] deals with chronic ITP model rats. Put plainly: Platelet count in chronic ITP model rats (anti-rat platelet serum). Format: in vivo, Wistar rats. The method, then:
(§1) Establishment of chronic ITP model: Wistar rats were selected to establish the model by injecting rabbit anti-rat platelet serum (APS). […] 50 Rats in which the model was successfully established were selected, weighed, and randomly divided into 5 groups, i.e. the model control group, the icariin group (positive control group), and the icaritin administration groups (high-, medium- and low-dose groups), with 10 rats in each group. The groups were administered with the following therapeutic agents, respectively.
The model control group: administered by subcutaneous injection with the same volume of normal saline;
The icariin group: administered by subcutaneous injection with 2 mg/kg of icariin;
The high-dose icaritin group: administered by subcutaneous injection with 10 mg/kg of the icaritin injection of Example 11;
The medium-dose icaritin group: administered by subcutaneous injection with 5 mg/kg of the icaritin injection of Example 11;
The low-dose icaritin group: administered by subcutaneous injection with 1 mg/kg of the icaritin injection of Example 11.
At 1 h after the last administration, blood was sampled from the venous plexus by inserting a disposable 20 μl blood collection tube into the inner canthus of the […].

Test [4] relates to active immune thrombocytopenia mice. Put plainly: Active immune thrombocytopenia in mice (platelets in peripheral blood). Format: in vivo, Balb/C mice. The following applies: x ± s. The method, then:
72 Balb/C mice were selected, weighed, and randomly divided into […] administration groups, i.e. the normal group, the model control group, the icariin group (positive control group), and the icaritin administration groups (high-, medium-, and low-dose groups), with 12 mice in each group. […] On the second day after the model was established, each group was administered with the following therapeutic agents: The normal group: administered intragastrically with the same volume of normal saline; The model control group: administered intragastrically with the same volume of normal saline; The […]: […]; The high-dose icaritin group: […] Example 9; The medium-dose icaritin group: […] Example 9; The low-dose icaritin group: […] Each of the administration groups was administered once a day and fed normally. After establishing the model three times, each administration group was continued to be administered for one week. The mice were anesthetized, and blood was sampled to measure the number of platelets and determine the effect of icaritin on the number of platelets (PLT) in the peripheral blood.

Test [5] relates to chronic ITP model rats. Description: Thrombin time, prothrombin time and partial thromboplastin time in chronic ITP model rats. The class given is in vivo, Wistar rats. The conditions noted are these: high- and medium-dose groups, P<0.05. The method, then: as §1

In the case of `COc1ccc(-c2oc3c(CC=C(C)C)c(O)cc(O)c3c(=O)c2O)cc1` [Icaritin], the Neutrophils in test [1] is recorded as 1.316 ± 0.15^#**^$$ 10^9/L. Also, the Platelets in test [1] was 687.4 ± 37.2^## 10^9/L. The White blood cells in test [1] is 3.530 ± 0.31^##**^$$ 10^9/L. For the same compound, the “Clotting Time” value in test [2] (high dose 10 mg/kg sc) is 1.96 ± 0.16**^ΔΔ; in test [2] (low dose 1 mg/kg sc), 3.84 ± 0.55; in test [2] (medium dose 5 mg/kg sc), 3.04 ± 0.31**^Δ. Further, the Platelet count in test [3] (high dose 10 mg/kg sc (injection of Example 11)) is reported as 819.96 ± 61.8**^ΔΔ ×10^9; in test [3] (low dose 1 mg/kg sc (injection of Example 11)), 680.84 ± 50.5 ×10^9; in test [3] (medium dose 5 mg/kg sc (injection of Example 11)) it was 720.4 ± 60.3**^Δ ×10^9. Also, the results for the PLT in test [4] (high dose 100 mg/kg intragastric (tablets of Example 9)), in test [4] (low dose 10 mg/kg intragastric (tablets of Example 9)) and in test [4] (medium dose 50 mg/kg intragastric (tablets of Example 9)) were 1193.4 ± 95.4 10^9/L, 862.7 ± 75.6 10^9/L and 983.5 ± 85.7 10^9/L, respectively. In test [5], the “partial thromboplastin time (APTT)” value is listed as “significantly shorten”. In addition, in test [5], the “prothrombin time (PT)” value is “significantly shorten”. Further, in test [5], the “thrombin time (TT)” value is listed as “significantly shorten”.
